Assay results published in US20240344241A1, “PROTEINACEOUS MOLECULES AND USES THEREFOR” (THE UNIVERSITY OF QUEENSLAND, priority 2021, published 2024).
Where two headings read alike, the source gives them in different places. Bridge positions count the residues as written; N and C are the ends. Peptide text beside a SMILES is read from it.

Assays:
[1] = target: T1, biotinylated human β-FXIIa (Homo sapiens, UniProt P00748); experiment: Surface plasmon resonance binding to FXIIa
T1 construct: purchased Molecular Innovations
Method: Binding kinetics of each peptide towards biotinylated human β-FXIIa (Molecular Innovations) and non-labelled zymogen FXII (Haematologic Technologies) were determined using a Biacore T200 machine (Cytiva). For β-FXIIa binding measurements, the running buffer was HBS-EP+(10 mM HEPES, 150 mM NaCl, 3 mM EDTA and 0.05% (v/v) surfactant P20, pH 7.4). Biotinylated β-FXIIa was immobilized on a Sensor Chip CAP (Cytiva) using Biotin CAPture Reagent (Cytiva). A series of concentrations of each peptide were injected as analyte and the binding kinetics were modelled using a 1:1 binding model. Regeneration of sensor surface was performed after each measurement cycle. For FXII binding measurements, the running buffer was PBST (137 mM NaCl, 2.7 mM KCl, 10 mM Na2HPO4, 1.8 mM KH2PO4, 0.05% Tween-20). Non-labelled FXII was immobilized on a Sensor Chip CM5 (Cytiva) using Amine Coupling Kit (Cytiva), achieving a final immobilization level of 2500 RU. Each peptide was flowed through immobilized FXII at 5 μM for 60 s and allowed dissociation for 150 s.

[2] = target: T2, bovine trypsin (Bos taurus, UniProt P00760); experiment: Surface plasmon resonance binding to trypsin
T2 sequence (P00760 24-246): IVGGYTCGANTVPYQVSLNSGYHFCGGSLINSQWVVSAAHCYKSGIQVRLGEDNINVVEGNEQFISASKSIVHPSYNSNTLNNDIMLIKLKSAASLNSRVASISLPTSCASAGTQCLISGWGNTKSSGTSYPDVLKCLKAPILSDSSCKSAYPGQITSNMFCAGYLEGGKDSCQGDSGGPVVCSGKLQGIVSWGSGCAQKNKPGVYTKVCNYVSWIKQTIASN

[3] = target: T3, Human β-FXIIa (Homo sapiens, UniProt P00748); experiment: FXIIa competitive inhibition assay, colorimetric substrate Ac-QRFR-pNA; format: biochemical
T3 construct: Human β-FXIIa was obtained from Molecular Innovations, together with human FXa, human FXIa, human α-thrombin, and human plasma kallikrein; purchased Molecular Innovations; host or cells: purified from human plasma
Method: The activity of acyclic and cyclic MCoFx1-5 and analogues thereof was assessed in competitive inhibition assays, as previously described in Swedberg et al. (2016) J Med Chem, 59: 7287-7292. Human β-FXIIa was obtained from Molecular Innovations, together with human FXa, human FXIa, human α-thrombin, and human plasma kallikrein. Human cationic trypsin and human plasmin were obtained from Sigma-Aldrich, and recombinant human matriptase was sourced from R&D Systems. Recombinant human urokinase (uPA) and recombinant human tissue plasminogen activator (tPA) were expressed in Expi293 cells, as previously described in Li et al. (2019) Chembiochem, 20: 46-50. FXIIa inhibition assays were performed in clear, low-binding 96-well plates using 250 μL (final volume) of assay buffer (0.1 M Tris-HCl pH 8.0, 0.1 M NaCl, 10 mM CaCl2 and 0.005% Triton X-100). Inhibitors were serially diluted and incubated with 10 nM FXIIa at room temperature to reach equilibrium. After adding 100 μM Ac-QRFR-pNA substrate (KM=162 μM), enzymatic activity was measured by monitoring release of the pNA moiety using a TECAN infinite M1000 Pro plate reader (A=405 nm, reading interval, 10 s; assay time course, 7 min). Assays were conducted in three times in duplicate. Substrate kinetic constants (Michaelis-Menten) and inhibition constants (Morrison K) were determined by non-linear regression using Prism 7 (GraphPad). Selectivity assays with off-target proteases were performed in a similar way, except that different concentrations of enzyme and substrate were used, as indicated in Table 16. For assays using a fluorescent substrate (peptide-4-methylcoumaryl-7-amide, MCA), black low-binding 96-well plates were used and activity was measured using a TECAN infinite M1000 pro plate reader (λex 360 nm, λem 460 nm, reading interval, 30 s; assay time course, 5-30 min).

[4] = Table 8, cyclic form, read-out: KD (nM) Trypsin Cyclic
[5] = Table 7, FXIIa, cyclic form of the peptide, read-out: Ki (nM) Cyclic
[6] = Table 8, cyclic form, read-out: KD (nM) FXIIa Cyclic

T3 sequence (P00748 373-615 limits assumed, other chains not shown): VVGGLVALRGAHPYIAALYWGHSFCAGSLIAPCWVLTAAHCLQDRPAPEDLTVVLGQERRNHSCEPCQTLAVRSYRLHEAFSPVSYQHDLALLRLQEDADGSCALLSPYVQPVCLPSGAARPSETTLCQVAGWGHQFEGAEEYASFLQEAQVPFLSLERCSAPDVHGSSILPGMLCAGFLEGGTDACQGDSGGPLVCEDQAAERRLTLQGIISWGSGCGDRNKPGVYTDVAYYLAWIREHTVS
T1 sequence (P00748 373-615 limits assumed, other chains not shown): as above

| SMILES | Kd ([1]; Table 7, FXIIa, cyclic form of the peptide, read-out: KD (nM) Cyclic) | Kd [2, 4] | Ki [3, 5] | Kd [1] | Kd [2] | Ki [3] | Kd [1, 6] |
| --- | --- | --- | --- | --- | --- | --- | --- |
| CC[C@H](C)[C@@H]1NC(=O)CNC(=O)CNC(=O)[C@H](CC(=O)O)NC(=O)[C@H](CO)NC(=O)CNC(=O)[C@H](CO)NC(=O)CNC(=O)[C@@H]2CSSC[C@@H]3NC(=O)[C@H](CC(=O)O)NC(=O)[C@H](CO)NC(=O)[C@H](CC(=O)O)NC(=O)[C@H](CCCNC(=N)N)NC(=O)[C@H](CCCNC(=N)N)NC(=O)[C@@H]4CSSC[C@H](NC(=O)[C@H]([C@@H](C)CC)NC(=O)[C@H](CSSC[C@H](NC1=O)C(=O)N1CCC[C@H]1C(=O)N[C@@H](CCCNC(=N)N)C(=O)N[C@@H]([C@@H](C)CC)C(=O)N[C@@H](CC(C)C)C(=O)N[C@@H](C(C)C)C(=O)N[C@@H](Cc1ccc(O)cc1)C(=O)N4)NC(=O)[C@H](C)NC(=O)CNC(=O)[C@@H]1CCCN1C3=O)C(=O)N[C@@H]([C@@H](C)CC)C(=O)N[C@@H](CCCNC(=N)N)C(=O)N[C@@H](CCCNC(=N)N)C(=O)N[C@@H]([C@@H](C)O)C(=O)N[C@@H](Cc1ccc(O)cc1)C(=O)N2 [MCoFx2 cyclic] (cyclo(ACICIRRTYCGSGSDGGICPRILVYCRRDSDCPG); disulfide 2-19, 4-26, 10-32) | 10 nM | < 0.1 nM | 12 ± 0.7 nM |  |  |  |  |
| CC[C@H](C)[C@@H]1NC(=O)[C@@H]2CSSC[C@H](NC(=O)[C@H](CCCNC(=N)N)NC(=O)CNC(=O)CNC(=O)[C@@H](N)CC(=O)O)C(=O)N3CCC[C@H]3C(=O)N[C@@H](CCCNC(=N)N)C(=O)N[C@@H](CC(C)C)C(=O)N[C@@H](CC(C)C)C(=O)N[C@@H](CCCNC(=N)N)C(=O)N[C@@H](Cc3c[nH]c4ccccc34)C(=O)N[C@H]3CSSC[C@H](NC1=O)C(=O)N[C@@H](C)C(=O)N[C@@H](CCCNC(=N)N)C(=O)NCC(=O)NCC(=O)N[C@@H](CC(C)C)C(=O)N[C@H](C(=O)NCC(=O)N[C@@H](CO)C(=O)NCC(=O)N[C@@H](CO)C(=O)O)CSSC[C@H](NC(=O)[C@H](CC(=O)O)NC(=O)[C@H](CO)NC(=O)[C@H](CC(=O)O)NC(=O)[C@H](CCCNC(=N)N)NC(=O)[C@H](CCCNC(=N)N)NC3=O)C(=O)N1CCC[C@H]1C(=O)NCC(=O)N[C@@H](C)C(=O)N2 [MCoFx3 acyclic] (H-DGGRCPRLLRWCRRDSDCPGACICARGGLCGSGS-OH; disulfide 5-22, 12-24, 18-30) |  |  |  | 167 ± 40 nM | 2.39 nM | 525 ± 30 nM |  |
| CC[C@H](C)[C@@H]1NC(=O)[C@@H]2CSSC[C@@H]3NC(=O)[C@H](CCCNC(=N)N)NC(=O)CNC(=O)CNC(=O)[C@H](CC(=O)O)NC(=O)[C@H](CO)NC(=O)CNC(=O)[C@H](CO)NC(=O)CNC(=O)[C@@H]4CSSC[C@H](NC(=O)[C@H](CC(=O)O)NC(=O)[C@H](CO)NC(=O)[C@H](CC(=O)O)NC(=O)[C@H](CCCNC(=N)N)NC(=O)[C@H](CCCNC(=N)N)NC(=O)[C@H](CSSC[C@H](NC1=O)C(=O)N[C@@H](C)C(=O)N[C@@H](CCCNC(=N)N)C(=O)NCC(=O)NCC(=O)N[C@@H](CC(C)C)C(=O)N4)NC(=O)[C@H](Cc1c[nH]c4ccccc14)NC(=O)[C@H](CCCNC(=N)N)NC(=O)[C@H](CC(C)C)NC(=O)[C@H](CC(C)C)NC(=O)[C@H](CCCNC(=N)N)NC(=O)[C@@H]1CCCN1C3=O)C(=O)N1CCC[C@H]1C(=O)NCC(=O)N[C@@H](C)C(=O)N2 [MCoFx3 cyclic] (cyclo(ACICARGGLCGSGSDGGRCPRLLRWCRRDSDCPG); disulfide 2-19, 4-26, 10-32) |  | 2.72 nM | 75 ± 3 nM |  |  |  | 22.8 ± 1.6 nM |
| CC[C@H](C)[C@@H]1NC(=O)[C@@H]2CSSC[C@H](NC(=O)[C@@H](NC(=O)CNC(=O)CNC(=O)[C@@H](N)CC(=O)O)C(C)C)C(=O)N3CCC[C@H]3C(=O)N[C@@H](CCCNC(=N)N)C(=O)N[C@@H](C(C)C)C(=O)NCC(=O)N[C@@H](Cc3c[nH]c4ccccc34)C(=O)N[C@@H](CCCNC(=N)N)C(=O)N[C@H]3CSSC[C@H](NC1=O)C(=O)N[C@@H](Cc1ccc(O)cc1)C(=O)N1CCC[C@H]1C(=O)N[C@@H]([C@@H](C)O)C(=O)N[C@@H](CCCCN)C(=O)N[C@@H](Cc1c[nH]c4ccccc14)C(=O)N[C@H](C(=O)NCC(=O)N[C@@H](CO)C(=O)NCC(=O)N[C@@H](CO)C(=O)O)CSSC[C@H](NC(=O)[C@H](CC(=O)O)NC(=O)[C@H](CO)NC(=O)[C@H](CC(=O)O)NC(=O)[C@H](CCCNC(=N)N)NC(=O)[C@H](CCCNC(=N)N)NC3=O)C(=O)N1CCC[C@H]1C(=O)NCC(=O)N[C@@H](C)C(=O)N2 [MCoFx4 acyclic] (H-DGGVCPRVGWRCRRDSDCPGACICYPTKWCGSGS-OH; disulfide 5-22, 12-24, 18-30) |  |  |  | 73.8 ± 6.3 nM | 15.1 nM | 17 ± 0.9 nM |  |
| CC[C@H](C)[C@@H]1NC(=O)[C@@H]2CSSC[C@@H]3NC(=O)[C@H](C(C)C)NC(=O)CNC(=O)CNC(=O)[C@H](CC(=O)O)NC(=O)[C@H](CO)NC(=O)CNC(=O)[C@H](CO)NC(=O)CNC(=O)[C@@H]4CSSC[C@H](NC(=O)[C@H](CC(=O)O)NC(=O)[C@H](CO)NC(=O)[C@H](CC(=O)O)NC(=O)[C@H](CCCNC(=N)N)NC(=O)[C@H](CCCNC(=N)N)NC(=O)[C@H](CSSC[C@H](NC1=O)C(=O)N[C@@H](Cc1ccc(O)cc1)C(=O)N1CCC[C@H]1C(=O)N[C@@H]([C@@H](C)O)C(=O)N[C@@H](CCCCN)C(=O)N[C@@H](Cc1c[nH]c5ccccc15)C(=O)N4)NC(=O)[C@H](CCCNC(=N)N)NC(=O)[C@H](Cc1c[nH]c4ccccc14)NC(=O)CNC(=O)[C@H](C(C)C)NC(=O)[C@H](CCCNC(=N)N)NC(=O)[C@@H]1CCCN1C3=O)C(=O)N1CCC[C@H]1C(=O)NCC(=O)N[C@@H](C)C(=O)N2 [MCoFx4 cyclic] (cyclo(ACICYPTKWCGSGSDGGVCPRVGWRCRRDSDCPG); disulfide 2-19, 4-26, 10-32) |  | 4.09 nM | 5.5 ± 0.5 nM |  |  |  | 14.4 ± 1.1 nM |
